Source: patent publication US20250099475A1, “METHODS OF TREATING HYPERTENSION BY PERIODIC SUPPRESSION OF ALDOSTERONE SYNTHASE” (Mineralys Therapeutics, Inc., priority 2022, published 2025)
Marks after values point to notes of the source that are not given here.

How the values were obtained:
[1] = Example 4 dose-ranging study: safety (adverse events, serum potassium, eGFR); format: in vivo, human
Procedure: Subjects orally administered the assigned study drug (Compound A HBr or placebo) according to the assigned dosing regimen for 8 weeks beginning on Study Day 1. All subjects in Part 1 (regardless of dosing group) received BID dosing to preserve the integrity of the blind; active drug is administered as the morning dose for all QD dose groups. Subjects returned to the research facility or were seen by the clinical investigator or approved home health care professional at the end of Study Weeks 1, 2, 3, 4, 5, 6, 7, and 8 (±2 days) for protocol-defined efficacy and safety assessments and procedures, assessment of adverse events (AEs), and confirmation of compliance with study drug usage. Subjects also completed a telephone visit and blood pressure (BP) check at home approximately 3 days post last dose of study drug. Subjects attended up to 14 full clinic visits, including a pre-Screening visit, a Screening/start of Placebo Run-in visit, a second visit during Placebo Run-in, a clinic visit to initiate the ABPM procedure, a Randomization visit, 8 weekly visits during double-blind treatment, and an end-of-study visit scheduled 4 weeks after the last study treatment for final efficacy and safety assessments.

[2] = test system: subjects with hypertension; test: Double-blinded, randomized, placebo-controlled trial in subjects with hypertension (Example 2; AOBP week 4, serum K+); format: in vivo, human
Procedure: A double-blinded, randomized, placebo-controlled trial on the safety and efficacy of Compound A HBr was conducted on subjects with hypertension.
Hypertensive subjects were randomly assigned to one of the following six experimental groups: • (a) Placebo group: Oral administration of a placebo tablet matched for size, color, and shape of study drug once in the morning each day; • (b) 12.5 mg BID: Oral administration of one tablet containing 12.5 mg of Compound A HBr once in the morning and evening, 12 hours apart each day; • (c) 25 mg BID: Oral administration of one tablet containing 25 mg of Compound A HBr once in the morning and evening, 12 hours apart each day; • (d) 12.5 mg QD: Oral administration of one tablet containing 12.5 mg of Compound A HBr once in the morning each day; • (e) 50 mg QD: Oral administration of two tablets containing 25 mg of Compound A HBr once in the morning each day; and • (f) 100 mg QD: Oral administration of one tablet containing 100 mg of Compound A HBr once in the morning each day.
Subjects in the study met the following inclusion criteria: • (a) Male and nonpregnant, nonlactating female subjects ≥18 years of age; • (b) Written informed consent Health Insurance Portability and Accountability Act authorization, and local patient privacy required documentation for this study have been obtained; • (c) Automated office blood pressure (AOBP) with SBP ≥130 mm Hg; • (d) Background antihypertensive treatment of ≥2 drugs; • (e) PRA ≤1.0 ng/mL; • (f) Serum aldosterone ≥1 ng/dL; and • (g) Morning serum cortisol in normal range. If baseline serum cortisol <18 mcg/dL, then baseline Cortrosyn stimulation test administered at baseline.
Prospective subjects were also excluded based on the following exclusion criteria: • (a) Concomitant use of epithelial sodium channel inhibitors or mineralocorticoid receptor antagonists; • (b) Subjects with hypokalemia; • (c) Subjects with hyperkalemia; • (d) Subjects with serum cortisol <3 mcg/dL; • (e) Subjects with serum sodium <135 mEq/L; • (f) Subjects with estimated glomerular filtration rate <60 mL/min/1.73 m2; • (g) Subjects with type 1 or uncontrolled (hemoglobin A1c ≥9%) type 2 diabetes mellitus; • (h) Subjects with body mass index >40 kg/m2; • (i) Subjects with unstable angina; • (j) Subjects with SBP ≥175 mm Hg or DBP ≥100 mm Hg; • (k) Subjects with a decrease in SBP ≥20 mm Hg or DBP ≥10 mm Hg from sitting to standing position; • (l) Subjects who, in the opinion of the investigator, have suspected nonadherence to antihypertensive treatment; • (m) Subjects who, in the opinion of the investigator, have any major medical illness or symptoms; • (n) Subjects who, in the opinion of the investigator, have any acute or chronic medical or psychiatric condition; • (o) Subjects undergoing treatment with any of the following medications: • (i) Topical corticoids; • (ii) Sympathomimetic decongestants; • (iii) Theophylline; • (iv) Phosphodiesterase type 5 inhibitors; • (v) NSAIDs; • (vi) Intramuscular steroids; • (vii) Estrogen; • (viii) Cytochromes; • (ix) Strong CYP3A and CYP3A4 inducers; • (p) Subjects with known hypersensitivity to Compound A HBr or any of the excipients; and • (q) Subjects who are night-shift workers.

[3] = pooled (Part 1 and Part 2) 100 mg QD safety set (n=60)

With `CC(=O)N[C@H]1CC[C@H](NC(=O)CN2CCN(c3nncc(-c4ccc(C)cc4)n3)CC2)CC1` [Compound A HBr] the “Study drug discontinuation: Hyperkalemia, subjects (%)” value ([1]; 100 mg QD Pooled, N 60) was 2 (3.3%), the “Study drug discontinuation: Hyponatremia, subjects (%)” value ([1]; 100 mg QD Pooled, N 60) was 1 (1.7%) and the “Study drug discontinuation: Hypotension, subjects (%)” value ([1]; 100 mg QD Pooled, N 60) was 2 (3.3%). For the same compound, the “Study drug discontinuation: Other possibly related, subjects (%)” value ([1]; 100 mg QD Pooled, N 60) was 1 (1.7%), the “Study drug discontinuation: Other unrelated, subjects (%)” value ([1]; 100 mg QD Pooled, N 60) was 4 (6.7%) and the “Individuals with verified or multiple increased Serum K+ 5.2-5.5 mMol/L, number (%)” value ([1]; 100 mg QD, Part 1) was 5 (18.5%). For the same compound, the “Individuals with verified or multiple increased Serum K+ 5.6-6.0 mMol/L, number (%)” value ([1]; 100 mg QD, Part 1) was 3 (10.7%), the “Individuals with verified or multiple increased Serum K+ 6.1-6.5 mMol/L, number (%)” value ([1]; 100 mg QD, Part 1) was 0 and the “Individuals with increased Serum K+ >6.5 mMol/L, number” value ([1]; 100 mg QD, Part 1, isolated incident not verified by repeat measurement) was 1*. For the same compound, the “Individuals with verified or multiple increased Serum K+ 5.2-5.5 mMol/L, number (%)” value ([1]; 100 mg QD, Part 2) was 1 (4%), the “Individuals with verified or multiple increased Serum K+ 5.6-6.0 mMol/L, number (%)” value ([1]; 100 mg QD, Part 2) was 0 and the “Individuals with verified or multiple increased Serum K+ 6.1-6.5 mMol/L, number (%)” value ([1]; 100 mg QD, Part 2) was 0. For the same compound, the “Individuals with verified or multiple increased Serum K+ >6.5 mMol/L, number” value ([1]; 100 mg QD, Part 2) was 0, the “Individuals with verified or multiple increased Serum K+ 5.2-5.5 mMol/L, number (%)” value ([1]; 100 mg QD, Pooled) was 6 (10.3%) and the “Individuals with verified or multiple increased Serum K+ 5.6-6.0 mMol/L, number (%)” value ([1]; 100 mg QD, Pooled) was 3 (5.2%). For the same compound, the “Individuals with verified or multiple increased Serum K+ 6.1-6.5 mMol/L, number (%)” value ([1]; 100 mg QD, Pooled) was 0, the “Individuals with verified or multiple increased Serum K+ >6.5 mMol/L, number” value ([1]; 100 mg QD, Pooled) was 0 and the “Study drug discontinuation: Hyperkalemia, subjects (%)” value ([1]; Part 1 100 mg QD, N 29) was 2 (6.9%). For the same compound, the “Study drug discontinuation: Hyponatremia, subjects (%)” value ([1]; Part 1 100 mg QD, N 29) was 0, the “Study drug discontinuation: Hypotension, subjects (%)” value ([1]; Part 1 100 mg QD, N 29) was 1 (3.4%) and the “Study drug discontinuation: Other possibly related, subjects (%)” value ([1]; Part 1 100 mg QD, N 29) was 1 (3.4%). The “Study drug discontinuation: Other unrelated, subjects (%)” value ([1]; Part 1 100 mg QD, N 29) was 3 (6.0%), the “Change in group mean serum potassium (K+), Mean” value (shortened to “Change … (K+), Mean”) ([1]; Part 1, N 26 (dose not given)) was “+0.50 mMol/L” and the “Study drug discontinuation: Hyperkalemia, subjects (%)” value ([1]; Part 1 All active, N 159) was 6 (3.8%). For the same compound, the “Study drug discontinuation: Hyponatremia, subjects (%)” value ([1]; Part 1 All active, N 159) was 0, the “Study drug discontinuation: Hypotension, subjects (%)” value ([1]; Part 1 All active, N 159) was 2 (1.2%) and the “Study drug discontinuation: Other possibly related, subjects (%)” value ([1]; Part 1 All active, N 159) was 1 (0.6%). The “Study drug discontinuation: Other unrelated, subjects (%)” value ([1]; Part 1 All active, N 159) was 11 (6.9%), the “Study drug discontinuation: Hyperkalemia, subjects (%)” value ([1]; Part 2 100 mg QD, N 31) was 0 and the “Study drug discontinuation: Hyponatremia, subjects (%)” value ([1]; Part 2 100 mg QD, N 31) was 1 (3.4%). The “Study drug discontinuation: Hypotension, subjects (%)” value ([1]; Part 2 100 mg QD, N 31) was 1 (2.8%), the “Study drug discontinuation: Other possibly related, subjects (%)” value ([1]; Part 2 100 mg QD, N 31) was 0 and the “Study drug discontinuation: Other unrelated, subjects (%)” value ([1]; Part 2 100 mg QD, N 31) was 1 (2.8%). The “Change … (K+), Mean” value ([1]; Part 2, N 31 (dose not given)) was “+0.23 mMol/L”, the “Change … (K+), Mean” value ([1]; Pooled, N 57 (dose not given)) was “+0.35 mMol/L” and the “Study drug discontinuation: Hyperkalemia, subjects (%)” value ([1]; Total active, N 190) was 6 (3.2%). The “Study drug discontinuation: Hyponatremia, subjects (%)” value ([1]; Total active, N 190) was 1 (0.5%), the “Study drug discontinuation: Hypotension, subjects (%)” value ([1]; Total active, N 190) was 3 (1.6%) and the “Study drug discontinuation: Other possibly related, subjects (%)” value ([1]; Total active, N 190) was 1 (0.5%). The “Study drug discontinuation: Other unrelated, subjects (%)” value ([1]; Total active, N 190) was 12 (6.3%), the “change in eGFR” value ([1]; dosing cohorts) was “dose-dependent and reversible reduction in eGFR” and the “effects on serum cortisol” value [1, 3] was “no effects on serum cortisol”. The episodes of hyperkalemia [1, 3] was “few episodes of mild or moderate hyperkalemia and no episodes of severe hyperkalemia”, the “serious adverse events (SAEs) related to the study medication” value ([1]; whole trial) was “No serious adverse events (SAEs) related to the study medication” and the “Reduction in systolic blood pressure from baseline at week 4, dose cohort vs placebo, Mean (SEM)” value (“Reduction in systolic blood pressure … (SEM)” for short) ([2]; 12.5 mg BID) was 1.2 (5.2). For the same compound, the “Systolic BP by AOBP, Change (Wk 4 v. BL), Mean” value ([2]; 12.5 mg BID, N 10) was −5.3 mmHg, the “Systolic BP by AOBP, Change (Wk 4 v. BL), Median” value ([2]; 12.5 mg BID, N 10) was −4.5 mmHg and the “Systolic BP by AOBP, Week 4, Mean” value ([2]; 12.5 mg BID, N 10) was 138 mmHg. The “Systolic BP by AOBP, Week 4, Median” value ([2]; 12.5 mg BID, N 10) was 133 mmHg, the “Reduction in systolic blood pressure … (SEM)” value ([2]; 12.5 mg QD) was 3.85 (6.1) and the “Systolic BP by AOBP, Change (Wk 4 v. BL), Mean” value ([2]; 12.5 mg QD, N 10) was −7.9 mmHg. For the same compound, the “Systolic BP by AOBP, Change (Wk 4 v. BL), Median” value ([2]; 12.5 mg QD, N 10) was −2.25 mmHg, the “Systolic BP by AOBP, Week 4, Mean” value ([2]; 12.5 mg QD, N 10) was 138.9 mmHg and the “Systolic BP by AOBP, Week 4, Median” value ([2]; 12.5 mg QD, N 10) was 139 mmHg. The “Reduction in systolic blood pressure … (SEM)” value ([2]; 25 mg BID) was 11.5 (5.1), the “Systolic BP by AOBP, Change (Wk 4 v. BL), Mean” value ([2]; 25 mg BID, N 11) was −15.5 mmHg and the “Systolic BP by AOBP, Change (Wk 4 v. BL), Median” value ([2]; 25 mg BID, N 11) was −20.0 mmHg. For the same compound, the “Systolic BP by AOBP, Week 4, Mean” value ([2]; 25 mg BID, N 11) was 132.1 mmHg, the “Systolic BP by AOBP, Week 4, Median” value ([2]; 25 mg BID, N 11) was 132 mmHg and the “Reduction in systolic blood pressure … (SEM)” value ([2]; 50 mg QD) was 6.3 (4.9). For the same compound, the “Systolic BP by AOBP, Change (Wk 4 v. BL), Mean” value ([2]; 50 mg QD, N 12) was −10.3 mmHg, the “Systolic BP by AOBP, Change (Wk 4 v. BL), Median” value ([2]; 50 mg QD, N 12) was −8.75 mmHg and the “Systolic BP by AOBP, Week 4, Mean” value ([2]; 50 mg QD, N 12) was 132.1 mmHg. The “Systolic BP by AOBP, Week 4, Median” value ([2]; 50 mg QD, N 12) was 133 mmHg, the “Reduction in systolic blood pressure … (SEM)” value ([2]; 100 mg QD) was 15 (5.4) and the “median increase in serum potassium (K+)” value ([2]; 100 mg QD cohort) was 0.2 mmol/L. For the same compound, the “subjects with dose held or dose reduction related to elevated K+” value ([2]; 100 mg QD cohort) was “No subjects”, the “Systolic BP by AOBP, Change (Wk 4 v. BL), Mean” value ([2]; 100 mg QD, N 10) was −19.0 mmHg and the “Systolic BP by AOBP, Change (Wk 4 v. BL), Median” value ([2]; 100 mg QD, N 10) was −20.25 mmHg. The “Systolic BP by AOBP, Week 4, Mean” value ([2]; 100 mg QD, N 10) was 126.1 mmHg and the “Systolic BP by AOBP, Week 4, Median” value ([2]; 100 mg QD, N 10) was 124 mmHg.
